Laboratory results taken from ChEMBL document CHEMBL1201862, “PubChem BioAssay data set” (2004).
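Protocol summary: plate cells (96-well), add compound at 5 concentrations, incubate 48 h, interpolate endpoints linearly. Here, GI50 denotes the concentration required for 50% inhibition of growth.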 Active and inactive are the calls of the source. Rule as the data show it: active = GI50 up to about 1.1 µM and inactive = higher.

Legend:
Experiment in all cases: inhibition of tumour cell growth, NCI panel, 48 h
UACC-257 = system: UACC-257
SF-295 = system: SF-295
NCI/ADR-RES = system: NCI/ADR-RES
NCI-H226 = system: NCI-H226
RXF 393 = system: RXF 393
COLO 205 = system: COLO 205
HT-29 = system: HT-29
SK-MEL-28 = system: SK-MEL-28
M14 = system: M14
HOP-92 = system: HOP-92
KM12 = system: KM12
CAKI-1 = system: CAKI-1
SK-MEL-5 = system: SK-MEL-5
NCI-H522 = system: NCI-H522
MCF7 = system: MCF7
HCT-15 = system: HCT-15
HCT-116 = system: HCT-116
A549 = system: A549
NCI-H460 = system: NCI-H460
OVCAR-3 = system: OVCAR-3

| SMILES | GI50 (UACC-257) | GI50 (SF-295) | GI50 (NCI/ADR-RES) | GI50 (NCI-H226) | GI50 (RXF 393) | GI50 (COLO 205) | GI50 (HT-29) | GI50 (SK-MEL-28) | GI50 (M14) | GI50 (HOP-92) | GI50 (KM12) | GI50 (CAKI-1) | GI50 (SK-MEL-5) | GI50 (NCI-H522) | GI50 (MCF7) | GI50 (HCT-15) | GI50 (HCT-116) | GI50 (A549) | GI50 (NCI-H460) | GI50 (OVCAR-3) |
| --- | --- | --- | --- | --- | --- | --- | --- | --- | --- | --- | --- | --- | --- | --- | --- | --- | --- | --- | --- | --- |
| CC1(C)S[C@H](CN)N[C@H]1C(=O)OC(c1ccccc1)c1ccccc1 | 17.4 µM (inactive) | 41.7 µM (inactive) | > 100 µM (inactive) | > 100 µM (inactive) | 63.5 µM (inactive) | 17.6 µM (inactive) | 33.7 µM (inactive) | 56.5 µM (inactive) | 34.2 µM (inactive) | 16.7 µM (inactive) | 38.5 µM (inactive) | 34.4 µM (inactive) | 17.2 µM (inactive) | 31.9 µM (inactive) | 61.9 µM (inactive) | 36.1 µM | 33.8 µM (inactive) | 42.2 µM (inactive) | – | – |
| CC#CCOC(=O)c1ccccc1OC(C)=O | > 100 µM (inactive) | > 100 µM (inactive) | > 100 µM (inactive) | > 100 µM (inactive) | > 100 µM (inactive) | > 100 µM (inactive) | – | – | > 100 µM (inactive) | > 100 µM (inactive) | > 100 µM (inactive) | > 100 µM (inactive) | > 100 µM (inactive) | > 100 µM (inactive) | > 100 µM (inactive) | > 100 µM | > 100 µM (inactive) | – | > 100 µM (inactive) | – |
| O=C(O)c1ccccc1/C=N/N=C1NCCN1 | 84.1 µM (inactive) | > 100 µM (inactive) | > 100 µM (inactive) | > 100 µM (inactive) | > 100 µM (inactive) | > 100 µM (inactive) | > 100 µM (inactive) | > 100 µM (inactive) | > 100 µM (inactive) | 22.7 µM (inactive) | > 100 µM (inactive) | – | > 100 µM (inactive) | 71.8 µM (inactive) | 91.2 µM (inactive) | > 100 µM | > 100 µM (inactive) | > 100 µM (inactive) | > 100 µM (inactive) | > 100 µM (inactive) |
| CC(C)(C)C1=NC(=P(c2ccccc2)(c2ccccc2)c2ccccc2)C(=O)O1 | > 100 µM (inactive) | > 100 µM (inactive) | > 100 µM (inactive) | > 100 µM (inactive) | > 100 µM (inactive) | > 100 µM (inactive) | > 100 µM (inactive) | > 100 µM (inactive) | > 100 µM (inactive) | > 100 µM (inactive) | > 100 µM (inactive) | > 100 µM (inactive) | > 100 µM (inactive) | 20.2 µM (inactive) | > 100 µM (inactive) | – | > 100 µM (inactive) | > 100 µM (inactive) | – | – |
| CCOC(=O)C1C(C(C)C)C2(C#N)C(=N)OC1(C)C2(C#N)C#N (configuration not stated) | 54.8 µM (inactive) | > 100 µM (inactive) | 45.5 µM (inactive) | 56.4 µM (inactive) | 36.3 µM (inactive) | 7.46 µM (inactive) | 82 µM (inactive) | > 100 µM (inactive) | > 100 µM (inactive) | 21.2 µM (inactive) | > 100 µM (inactive) | 2.72 µM (inactive) | 30.5 µM (inactive) | 26 µM (inactive) | 59.4 µM (inactive) | 49.3 µM | 56 µM (inactive) | > 100 µM (inactive) | – | – |
| N#Cc1nc(CSCc2ccccc2)oc1N | > 100 µM (inactive) | > 100 µM (inactive) | > 100 µM (inactive) | > 100 µM (inactive) | > 100 µM (inactive) | > 100 µM (inactive) | > 100 µM (inactive) | > 100 µM (inactive) | > 100 µM (inactive) | > 100 µM (inactive) | > 100 µM (inactive) | > 100 µM (inactive) | – | 42.6 µM (inactive) | > 100 µM (inactive) | > 100 µM | > 100 µM (inactive) | > 100 µM (inactive) | > 100 µM (inactive) | > 100 µM (inactive) |
